Test results as given in paper PMC10609081, “In Vivo Trafficking of the Anticancer Drug Tris(8-Quinolinolato) Gallium (III) (KP46) by Gallium-68/67 PET/SPECT Imaging” (Molecules, 2023).

Tests used:
[1] = PET imaging and ex vivo biodistribution 4 h after intravenous injection, NSG mice bearing A375 xenografts (groups A, B); type: in vivo; settings: i.v., tracer level
Description: All animal experiments were performed in accordance with the Animals (Scientific Procedures) Act, 1986, with protocols approved by the Animal Welfare and Ethical Review Body for King’s College London under project and personal licences approved by the UK Home Office. Tumour xenograft studies were performed on female NSG mice or female athymic nude mice after injecting them subcutaneously in the right shoulder with 2.5 × 10^6 A375 cells in 100 µL of PBS. All in vivo studies were conducted between 14 and 24 days after inoculation, with tumour volumes between 100 mm^3 and 580 mm^3 (see Supplementary Materials, Figure S11).
Intravenous [^68Ga]gallium acetate and [^68Ga]KP46: NSG mice bearing A375 xenografts were fasted for 12–14 h before the start of the experiment. Mice were anaesthetised with isoflurane and injected with tracer level [^68Ga]gallium acetate (group A, n = 5) or [^68Ga]KP46 (group B, n = 5) (13–18 MBq, <200 μL) via the tail vein. […] The organs were harvested, weighed, and gamma counted. […]
PET/CT images were acquired with a nanoScan® PET/CT (Mediso Medical Imaging Systems, Budapest, Hungary) scanner operating in list mode using a 400–600 keV energy window and a coincidence window of 1:3. […] The data were then visualised and quantified using VivoQuant^© v.2.50 (InviCro, Boston, MA, USA) software. […] Images were coregistered and analysed using VivoQuant v2.50 (InviCro, Needham, MA, USA).

[2] = target: T1, human serum albumin (HSA) (Homo sapiens, UniProt P02768); assay: Binding to human serum albumin by size exclusion chromatography (PD MidiTrap G-25); type: in vitro ADME
T1 construct: purchased Sigma Aldrich
Description: Solutions of human apo-transferrin (apo-Tf, 2 mg/mL) and human serum albumin (HSA, 50 mg/mL) (both purchased from Sigma Aldrich) were dissolved in aqueous NaHCO3 (5 mM, pH = 8) and PBS (pH = 7.4), respectively. An amount of 1 MBq of tracer-level [^68Ga]KP46 (13–20 µL) or [^68Ga]gallium acetate (20–25 µL) was added to 1.2 mL of the apo-Tf solution and to a similar apo-Tf-free NaHCO3 solution (control). Similarly, [^68Ga]KP46 and [^68Ga]gallium acetate solutions were added to 1.5 mL PBS containing HSA or HSA-free PBS (control). The samples were incubated for 60 min at 37 °C (pH = 7–7.5). From each mixture, 0.5 mL was loaded into PD MidiTrap G-25 size exclusion chromatography cartridges that were preconditioned with 8 mL of NaHCO3 (5 mM) (for apo-Tf binding) or PBS (for HSA binding). Fractions (0.5 mL) were collected and counted with a Wallac gamma counter. Protein absorbance at 280 nm was measured using a Nanodrop spectrophotometer. To investigate the speciation of the Ga–KP46 complex in the presence of apo-Tf at later time points (up to 48 h), the experiment was repeated with ^67Ga.

T1 sequence (P02768 25-609): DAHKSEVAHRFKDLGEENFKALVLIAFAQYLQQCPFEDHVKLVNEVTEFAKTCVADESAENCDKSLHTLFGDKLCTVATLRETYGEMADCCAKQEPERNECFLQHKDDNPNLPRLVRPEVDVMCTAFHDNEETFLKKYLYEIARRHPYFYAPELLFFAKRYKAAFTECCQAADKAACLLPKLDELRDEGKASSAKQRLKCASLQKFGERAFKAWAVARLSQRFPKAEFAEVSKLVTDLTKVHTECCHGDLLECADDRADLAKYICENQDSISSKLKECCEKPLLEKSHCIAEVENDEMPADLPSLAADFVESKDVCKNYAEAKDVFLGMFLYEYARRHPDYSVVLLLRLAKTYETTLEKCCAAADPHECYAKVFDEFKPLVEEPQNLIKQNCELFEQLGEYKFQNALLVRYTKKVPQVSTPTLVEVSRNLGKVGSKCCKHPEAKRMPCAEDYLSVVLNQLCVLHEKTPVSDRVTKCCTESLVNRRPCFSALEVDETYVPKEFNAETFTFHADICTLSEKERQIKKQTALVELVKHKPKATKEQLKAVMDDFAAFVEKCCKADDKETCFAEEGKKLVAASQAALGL

With [68Ga+3].[O-]c1cccc2cccnc12.[O-]c1cccc2cccnc12.[O-]c1cccc2cccnc12 [[^68Ga]KP46] the “tumour uptake, ex vivo biodistribution” value ([1]; 4 h, n = 5) was 2.6 ± 0.9 %ID/g, the “tumour uptake of 68Ga by PET/CT” value ([1]; by four hours) was “no visible tumour accumulation” and the “radioactivity coeluting with HSA” value ([2]; 1 h incubation at 37 °C, HSA 50 mg/mL in PBS) was “about 16%”. The “binding of radioactivity to HSA” value ([2]; incubated 1 h with HSA) was “significant binding”.
